Measured values: patent US8673922B2, “Azaindazole compounds” (Bristol-Myers Squibb Company, priority 2010, dated 2014)
pIC50: −log10 of the molar value.

Each molecule was assayed on cynomolgus monkeys (assay: 1-Day Cyno PK/PD Study). Settings: plasma, single oral dose 1 mg/Kg in 80% PEG-400/water, monitored over 24 hours.
Assay type: in vivo, cynomolgus monkey
Protocol: Example 67 was formulated in 80% PEG-400/water at a volume of 1 mL/kg of monkey at a dose of 1 mg/kg. The formulation was then dosed orally at time=0 hours and blood samples were taken over a 24 hour period to monitor for drug exposure and testosterone levels. (♦) Example 67 (nM); (▪) testosterone (ng/dL).
• Animals: All procedures involving animals and their care were conducted in conformity with the guidelines that are in compliance with the Bristol-Myers Squibb Institutional Animal Care and Use Committee. Fully mature male cynomolgus monkeys (>4 yrs of age; 5-6 kg) were from an in-house colony. All the monkeys used had chronically implanted femoral vein access ports. For oral studies, all animals were fasted overnight prior to dosing and were fed 4 hr after dosing. […] The plasma fraction was immediately separated by centrifugation (14,000 rpm, 10 min, 4° C.), frozen on dry ice, and stored at −20° C. until the samples were analyzed. • Analysis of Tested Compound: Plasma samples were thawed and treated with two volumes of acetonitrile containing internal standard. After centrifugation to remove precipitated proteins, an aliquot of supernatant was analyzed by LC/MS/MS. […]

Row | Structure (SMILES) | testosterone levels
1 | Nc1ncncc1-c1ccnc2c1cnn2-c1ccc(F)cc1F [Example 67, 5-(1-(2,4-difluorophenyl)-1H-pyrazolo[3,4-b]pyridin-4-yl)pyrimidin-4-amine] | ~30 ng/dL

Each molecule was assayed against T1, Human CYP17 (Homo sapiens, UniProt P05093) (assay: CYP17 Total SPA Assay). Settings: microsomes from HEK2 cells stably transfected with CYP17; 3H-Pregnenolone 1 uM, NADPH 2 mM; 45 minutes at room temperature.
T1 construct: expressed in transfected cells; host or cells: HEK2 (sic); microsomes prepared as a high-speed pellet
T1 sequence (P05093 1-508): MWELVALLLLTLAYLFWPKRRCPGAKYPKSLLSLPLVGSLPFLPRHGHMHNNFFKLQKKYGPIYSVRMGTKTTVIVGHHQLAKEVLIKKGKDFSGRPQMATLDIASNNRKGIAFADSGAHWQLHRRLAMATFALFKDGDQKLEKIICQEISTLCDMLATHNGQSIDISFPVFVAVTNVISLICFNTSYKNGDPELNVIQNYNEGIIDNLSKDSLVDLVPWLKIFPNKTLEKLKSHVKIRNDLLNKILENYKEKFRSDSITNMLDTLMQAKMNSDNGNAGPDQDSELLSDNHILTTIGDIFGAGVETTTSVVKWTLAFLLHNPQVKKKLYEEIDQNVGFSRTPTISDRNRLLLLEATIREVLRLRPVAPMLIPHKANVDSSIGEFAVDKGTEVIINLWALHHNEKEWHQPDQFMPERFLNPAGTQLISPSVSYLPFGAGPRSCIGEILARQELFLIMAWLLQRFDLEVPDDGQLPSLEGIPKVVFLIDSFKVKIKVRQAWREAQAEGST
Assay type: biochemical
Protocol: The assays were performed in U-bottom 384-well optiplates. The final assay volume was 15 μl prepared from 7.5 μl additions of microsomes (prepared as a high-speed pellet from homogenized HEK2 cells stably transfected with CYP17), substrates (3 H-Pregnenolone and NADPH) and test compounds in assay buffer (50 mM Potassium phosphate pH 7.2, 10% glycerol). The reaction was initiated by the combination of the microsomes and substrates in wells containing compound. The reaction was incubated at room temperature for 45 minutes and terminated by adding 7.5 μl of 0.2N HCl to each well. Following an incubation period of 10 minutes, anti-DHEA-coated SPA beads were added to the terminated reaction. The plate was sealed and incubated overnight with shaking at 4° C. The beads were allowed to settle in the plate for 1 hour and the plate read on a Topcount (Perkin-Elmer) plate reader.
Inhibition data were calculated by comparison to no enzyme control reactions for 100% inhibition and vehicle-only reactions for 0% inhibition. The final concentration of reagents in the assays are NADPH, 2 mM; 3H-Pregnenolone, 1 uM; microsomes, 1.25 ug/ml; Anti-DHEA-SPA beads (0.125 mg/well) in 0.5% Triton X-100 and DMSO, 0.05%. Dose response curves were generated to determine the concentration required inhibiting 50% of enzyme activity (IC50). Compounds were dissolved at 10 mM in dimethylsulfoxide (DMSO) and evaluated at eleven concentrations, each in duplicate. IC50 values were derived by non-linear regression analysis.
Table 5 below lists the IC50 values for the following examples of this invention measured in the Total CYP17 SPA Assay hereinabove.

Row | pIC50 | Structure (SMILES)
2 | 6.73 | Cc1ncncc1-c1ccnc2c1cnn2-c1ccc(F)cc1 [Example 2, 1-(4-fluorophenyl)-4-(4-methylpyrimidin-5-yl)-1H-pyrazolo[3,4-b]pyridine]
3 | 7.64 | Nc1ncncc1-c1ccnc2c1cnn2-c1ccc(F)cc1 [Example 8, 5-(1-(4-fluorophenyl)-1H-pyrazolo[3,4-b]pyridin-4-yl)pyrimidin-4-amine]
4 | 8.23 | OC1(c2ccncc2-c2ccnc3c2cnn3-c2ccc(F)cc2)COC1 [Example 9, 3-(3-(1-(4-fluorophenyl)-1H-pyrazolo[3,4-b]pyridin-4-yl)pyridin-4-yl)oxetan-3-ol]
5 | 6.41 | Cc1ccncc1-c1ccnc2c1cnn2C1CCOCC1 [Example 33, 4-(4-methylpyridin-3-yl)-1-(tetrahydro-2H-pyran-4-yl)-1H-pyrazolo[3,4-b]pyridine]
6 | 7.00 | Cc1ccncc1-c1ccnc2c1cnn2-c1ccc(C(F)(F)F)cn1 [Example 39, 4-(4-methylpyridin-3-yl)-1-(5-(trifluoromethyl)pyridin-2-yl)-1H-pyrazolo[3,4-b]pyridine]
7 | 8.00 | Cc1ccncc1-c1ccnc2c1cnn2-c1ncccc1Br [Example 46, 1-(3-bromopyridin-2-yl)-4-(4-methylpyridin-3-yl)-1H-pyrazolo[3,4-b]pyridine]
8 | 6.09 | Cc1ccncc1-c1ccnc2c1cnn2Cc1c(F)cccc1Cl [Example 55, 1-(2-chloro-6-fluorobenzyl)-4-(4-methylpyridin-3-yl)-1H-pyrazolo[3,4-b]pyridine]
9 | 7.82 | Cc1ncncc1-c1ccnc2c1cnn2-c1ccc(F)cc1F [Example 64, 1-(2,4-difluorophenyl)-4-(4-methylpyrimidin-5-yl)-1H-pyrazolo[3,4-b]pyridine]
10 | 8.24 | Nc1ncncc1-c1ccnc2c1cnn2-c1ccc(F)cc1F [Example 67, 5-(1-(2,4-difluorophenyl)-1H-pyrazolo[3,4-b]pyridin-4-yl)pyrimidin-4-amine]
11 | 6.98 | Nc1ncncc1-c1ccnc2c1cnn2-c1ccc(F)c(F)c1F [Example 70, 5-(1-(2,3,4-trifluorophenyl)-1H-pyrazolo[3,4-b]pyridin-4-yl)pyrimidin-4-amine]
12 | 6.28 | Nc1ncncc1-c1ccnc2c1cnn2-c1ccccn1 [Example 72, 5-(1-(pyridin-2-yl)-1H-pyrazolo[3,4-b]pyridin-4-yl)pyrimidin-4-amine]
13 | 7.74 | Cc1ccncc1-c1ccnc2c1cnn2-c1cccc(S(N)(=O)=O)c1 [Example 80, 3-(4-(4-methylpyridin-3-yl)-1H-pyrazolo[3,4-b]pyridin-1-yl)benzenesulfonamide]
14 | 7.05 | Cc1ccncc1-c1ccnc2c1cnn2CC(F)(F)F [Example 84, 4-(4-methylpyridin-3-yl)-1-(2,2,2-trifluoroethyl)-1H-pyrazolo[3,4-b]pyridine]
15 | 6.21 | Cc1csc(-n2ncc3c(-c4cnccc4C)ccnc32)n1 [Example 88, 4-methyl-2-(4-(4-methylpyridin-3-yl)-1H-pyrazolo[3,4-b]pyridin-1-yl)thiazole]
16 | 6.80 | Fc1ccc(-n2ncc3c(-c4cncnc4C(F)(F)F)ccnc32)c(F)c1 [Example 93, 1-(2,4-difluorophenyl)-4-(4-(trifluoromethyl)pyrimidin-5-yl)-1H-pyrazolo[3,4-b]pyridine]
17 | 6.15 | Nc1ncncc1-c1ccnc2c1cnn2-c1ccc(F)c(Cl)c1 [Example 96, 5-(1-(3-chloro-4-fluorophenyl)-1H-pyrazolo[3,4-b]pyridin-4-yl)-4-pyrimidinamine]
18 | 6.49 | Fc1ccc(-n2ncc3c(-c4cncnc4C(F)(F)F)ccnc32)cc1F [Example 100, 1-(3,4-difluorophenyl)-4-(4-(trifluoromethyl)-5-pyrimidinyl)-1H-pyrazolo[3,4-b]pyridine]
19 | 6.91 | Fc1ccc(-n2ncc3c(-c4cncnc4OCC(F)(F)F)ccnc32)cc1 [Example 106, 1-(4-fluorophenyl)-4-(4-(2,2,2-trifluoroethoxy)pyrimidin-5-yl)-1H-pyrazolo[3,4-b]pyridine]
